Drawing on PMC5772355 (Scientific Reports, 2018), this text covers inhibition and IC50 for four compounds.

The inhibition is the change of the read-out against control, counted positive when it falls. A low value points to little suppression. Usually IC50 stands for the concentration needed to halve the response being measured. A higher IC50 goes with weaker potency in that assay.

Assay [1] has as its target T1, xCT (SLC7A11), system xc− (Mus musculus, UniProt Q9WTR6).
T1 construct: coding region of murine xCT, stably overexpressed in MEF; with 4F2 heavy chain (SLC3A2)
T1 sequence (Q9WTR6 1-502): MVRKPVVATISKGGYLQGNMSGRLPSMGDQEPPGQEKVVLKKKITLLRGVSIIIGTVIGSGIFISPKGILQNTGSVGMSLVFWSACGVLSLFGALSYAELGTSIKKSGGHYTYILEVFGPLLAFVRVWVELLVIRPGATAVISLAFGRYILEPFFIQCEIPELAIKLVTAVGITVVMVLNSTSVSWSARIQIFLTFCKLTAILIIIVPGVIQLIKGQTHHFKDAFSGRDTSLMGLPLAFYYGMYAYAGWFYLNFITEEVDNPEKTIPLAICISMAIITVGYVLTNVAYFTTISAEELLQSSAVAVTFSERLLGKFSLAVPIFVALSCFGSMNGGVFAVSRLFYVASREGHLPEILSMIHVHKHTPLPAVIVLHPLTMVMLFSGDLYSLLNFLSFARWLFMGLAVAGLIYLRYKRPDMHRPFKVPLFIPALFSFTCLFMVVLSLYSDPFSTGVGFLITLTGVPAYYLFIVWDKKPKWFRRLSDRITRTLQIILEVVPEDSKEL
T1 sequence (P10852 1-526 partner): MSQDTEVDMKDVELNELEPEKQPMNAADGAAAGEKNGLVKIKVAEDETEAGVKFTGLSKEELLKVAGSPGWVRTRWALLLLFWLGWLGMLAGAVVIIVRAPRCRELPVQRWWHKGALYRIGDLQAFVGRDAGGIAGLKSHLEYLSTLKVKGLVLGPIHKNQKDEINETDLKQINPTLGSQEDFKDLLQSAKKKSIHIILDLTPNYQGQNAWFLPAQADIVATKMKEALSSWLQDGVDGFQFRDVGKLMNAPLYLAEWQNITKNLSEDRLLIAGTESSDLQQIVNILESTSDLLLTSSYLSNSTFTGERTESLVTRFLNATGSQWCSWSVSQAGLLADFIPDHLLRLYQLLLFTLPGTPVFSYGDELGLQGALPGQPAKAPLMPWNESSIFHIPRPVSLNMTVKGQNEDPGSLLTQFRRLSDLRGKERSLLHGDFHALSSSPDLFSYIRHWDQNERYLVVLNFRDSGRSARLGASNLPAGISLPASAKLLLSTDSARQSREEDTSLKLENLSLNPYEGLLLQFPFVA
Nature of the assay: inhibition of L-[…]cystine uptake in xCT-overexpressing MEF. It counts as cell-based.

In assay [2] the target is T1, xCT (SLC7A11), system xc−. The assay is described as above. It counts as cell-based. The source holds these as a separate data set.

In the case of `N[C@@H](CCC(=O)O)C(=O)O` [Glu, L-glutamate], the inhibition at 100 µM in assay [1] is around 50%.

For `N[C@@H](Cn1oc(=O)[nH]c1=O)C(=O)O` [QA, quisqualic acid], 15.4 µM corresponded to half-maximal inhibition in assay [2] (IC50). This lies in the double-digit micromolar range.

In turn, `O=C(O)c1cc(/N=N/c2ccc(S(=O)(=O)Nc3ccccn3)cc2)ccc1O` [SAS, sulfasalazine] came in with an IC50 in assay [2] of 26.1 µM. Compared with the last compound, the IC50 is about 1.7-fold higher.

In the case of `CCOc1ccccc1-n1c(C(C)N2CCN(C(=O)COc3ccc(Cl)cc3)CC2)nc2ccccc2c1=O` (stereo not shown) [erastin], half-maximal inhibition in assay [2] (IC50) required 1.4 µM.
